The values below come from patent US20190248830A1, “PROLIPOSOMAL TESTOSTERONE UNDECANOATE FORMULATIONS” (WESTERN UNIVERSITY OF HEALTH SCIENCES, priority 2016, published 2019).

The nature of series [1]: Oral PK (plasma T) of TSX-002, TSX-007, TSX-009, unformulated T and TU in female beagle dogs, fasted or fed. The class given is in vivo. Conditions: for AUC / Cmax / Tmax: female, beagle, dog, plasma, po, 7.5 mg/kg; for AUC / Cmax / Tmax / Av. AUC (plasma T) / Av. Cmax (plasma T) / Av. Tmax: oral 7.5 mg/kg; for AUC: read-out: Av. AUC (plasma T); for Cmax: read-out: Av. Cmax (plasma T); for Tmax: read-out: Av. Tmax. The method, then: In vivo pK data TSX-002 (native T:Lipid), TSX-007 (native T:Lipid:TPGS (20% w/w of T)), and TSX-009 (TU:Lipid:TPGS (20% w/w of T)). TSX-002, TSX-007, and TSX-009 formulations were orally administered to female beagle dogs under fasted or fed conditions. Fasted condition means animals were fasted overnight, dosing was performed the subsequent morning, and food was served two hours post-dosing. Animals were allowed access to food for another two hours, and monitored if they ate the food. Fed condition means animals were fasted overnight, dosing was performed the subsequent morning, and food was served 15 min. post-dosing. Animals were allowed access to food for another two hours, and monitored if they ate the food. Blood samples were taken, at 0, 0.5, 1, 2, 3, 4, 6, 8, 12 and 24 hours. The administered dosage of TU was 7.5 mg/kg (TU/body weight). Plasma samples were analyzed on Day 1 and Day 7. Pharmacokinetic data for treatment days 1 and 7, under fasting and fed conditions are reported for unformulated T in Table 2; unformulated TU in Table 3; TSX-002 (T:Lipid) in Table 4; TSX-007 (native T:Lipid:TPGS (20% w/w of T)) in Table 5; and TSX-009 (TU:Lipid:TPGS (20% w/w of T)) in Table 6.
(§1) In vivo pK data for TSX-010 (TU:Lipid, 1:1), TSX-011 (TU:Lipid, 1:2), and TSX-012 (TU:Lipid, 1:4) in female Beagle dogs. Unformulated TU, TSX-010, TSX-011, and TSX-012 formulations. In addition to tracking plasma T levels, blood samples taken by jugular vein puncture at 0, 0.5, 1, 2, 3, 4, 6, 8, 12, 24 hours, and the following pharmacokinetic (PK) parameters were analyzed for each formulation and unformulated testosterone and testosterone undecanoate. Table 18 contains PK data for unformulated testosterone and testosterone undecanoate at days 1 and 7, under fasted and fed conditions. Tables 19 and 20 contain PK data for the TSX-010, TSX-011, and TSX-012 formulations under fasted (Table 19) and fed (Table 20) conditions.

Series [2] is described as follows: Plasma testosterone concentrations and PK after oral TSX-010, TSX-011, TSX-012 or unformulated TU in female beagle dogs. The class given is in vivo. Conditions: TU 7.5 mg/kg. The method, then:
Plasma testosterone concentrations after administration of TSX-010 (TU:Lipid, 1:1), TSX-011 (TU:Lipid, 1:2), and TSX-012 (TU:Lipid, 1:4). Unformulated TU, TSX-010, TSX-011, and TSX-012 formulations were orally administered under either fasted or fed conditions. The fasted condition means animals were fasted overnight, dosing was performed the subsequent morning, and food was served two hours post-dosing. Animals were allowed access to food for another two hours, and monitored if they ate the food. The fed condition means animals were fasted overnight, dosing was performed the subsequent morning, and food was served 15 min. post-dosing. Animals were allowed access to food for another two hours, and monitored if they ate the food. For unformulated TU, blood samples were taken by venipuncture of the jugular vein at 0, 0.5, 1, 2, 3, 4, 6, 8, 12, and 24 hours in both fed and fasted conditions. For TU formulations like TSX-010, TSX-011, TSX-012, blood samples were taken by venipuncture of the jugular vein at 0, 4, 6, 8, 10, 12, 14, 16, 18 and 24 hours in fasted conditions and at 0, 1, 2, 4, 6, 8, 10, 12, 16 and 24 hours in fed conditions in femalebeagle dogs. The administered dosages of TU were either 1.875, 3.75, or 7.5 mg/kg (TU/body weight). Plasma testosterone concentration data, was obtained at day 1 for formulations TSX-010, TSX-011, and TSX-012, and days 1 and 7, for unformulated TU.
as §1

Molecules are shown by their SMILES. Read-outs that look alike come from different tables or passages of the source.

For `C[C@]12CC[C@H]3[C@@H](CCC4=CC(=O)CC[C@@]43C)[C@@H]1CC[C@@H]2O` [Unformulated T, testosterone], the area under the curve (AUC) (usually concentration integrated over time) came out at 28.7 ± 9.44 ng·h/mL in series [1] (day 1, fasted); 36.8 ± 19.4 ng·h/mL in series [1] (day 1, fed); 11.2 ± 3.28 ng·h/mL in series [1] (day 7, fasted); 43 ± 43.9 ng·h/mL in series [1] (day 7, fed). In addition, the Cmax (usually the highest concentration seen after dosing) in series [1] (day 1, fasted) was determined as 6.39 ± 2.47 ng/mL; in series [1] (day 1, fed), 9.85 ± 5.8 ng/mL; in series [1] (day 7, fasted) it was 2.7 ± 0.78 ng/mL; in series [1] (day 7, fed), 13 ± 13.6 ng/mL. In addition, the Tmax (commonly the time at which the peak concentration occurs) in series [1] (day 1, fasted) turned out to be 2.17 ± 0.98 h; in series [1] (day 1, fed), 3.67 ± 2.58 h; in series [1] (day 7, fasted) it was 2.5 ± 1.22 h; in series [1] (day 7, fed) it was 3.5 ± 4.42 h.
`CCCCCCCCCCC(=O)O[C@H]1CC[C@H]2[C@@H]3CCC4=CC(=O)CC[C@]4(C)[C@H]3CC[C@]12C` [Unformulated TU, testosterone undecanoate]: the “Animals with plasma T > 0.5 ng/mL, percent” value is listed as “(33.3%)” in series [2] (fasted, day 1); “(50%)” in series [2] (fasted, day 7); “(100%)” in series [2] (fed, day 1); “(100%)” in series [2] (fed, day 7). Further, the “Animals with plasma T > 0.5 ng/mL (responders/treated)” value is reported as 2/6 in series [2] (fasted, day 1, within 24 h); 3/6 in series [2] (fasted, day 7, within 24 h); 6/6 in series [2] (fed, day 1, within 24 h); 5/6 in series [2] (fed, day 7, within 24 h). Further, the “Plasma profiles on Day 7” value in series [1] (Day 7, compared to responders to proliposomal TU formulations) is recorded as “plasma profiles dropped significantly”. In series [1] (fed compared to fasted state), the “Increase in AUC and Cmax in the presence of food” value was “two-fold increase in AUC and Cmax”. Moreover, the “Av. AUC (plasma T)” value in series [1] (day 1, fasted) was found to be 16.63 ± 27.15 ng·h/mL; in series [1] (day 1, fed), 108.41 ± 42.73 ng·h/mL; in series [1] (day 7, fasted), 30.88 ± 35.98 ng·h/mL; in series [1] (day 7, fed) it was 20.50 ± 16.59 ng·h/mL. The “Av. Cmax (plasma T)” value in series [1] (day 1, fasted) worked out at 2.34 ± 3.94 ng/mL; in series [1] (day 1, fed), 33.83 ± 5.06 ng/mL; in series [1] (day 7, fasted) it was 4.38 ± 5.12 ng/mL; in series [1] (day 7, fed), 5.37 ± 3.78 ng/mL. For the same compound, the “Av. Tmax” value turned out to be 6.50 ± 4.43 h in series [1] (day 1, fasted); 4.0 ± 1.55 h in series [1] (day 1, fed); 8.0 ± 5.66 h in series [1] (day 7, fasted); 4.17 ± 3.25 h in series [1] (day 7, fed).
